Results as given in US6730332B2, “Herbal composition having antiallergic properties and a process for the preparation thereof” (Natural Remedies Pvt. Ltd., priority 2000, dated 2004).

Columns and labels:
[1] = test system: mast cells; assay: mast cell stabilization bioassay; format: cell-based, rats
Excerpt: The present invention is based on our experience and knowledge about the usage of various herbs along with our in depth studies on traditional literature. For this project a number of plants and plant preparations were selected for detailed studies. The selected plants/extracts were then subjected to the mast cell stabilization bioassay. This bioassay has been reported to be one of the important tools in detecting the substances having antiallergic activity. In this context reference may be made to “Rajashekharan M. et al, J. Drug Dev., 1989, 2(3), 179-182.” Mast cells are basophilic cells in subcutaneous and connective tissue. They are found in large numbers in mesentery of rats and contain numerous membrane bounded granules, which contain strong pharmacologically active mediators such as histamine, SRS-A, Serotonin, bradykinin etc. The role of mast cells in pathogenesis of allergic disease has been well recognized. Mast cells contain receptors for Fc fragment of IgE antibodies. Therefore, IgE antibodies formed on exposure to antigen will combine with the mast cells. On subsequent re-exposure to the same antigen, there occurs an antigen antibody reaction which will initiate mast cell de-granulation in a similar manner as that of de-granulating agents like carbachol or the compound which is the condensation product of N-methyl-p-methoxyphenylamine with formaldehyde. […]

[2] = test system: active paw anaphylaxis; assay: Active paw anaphylaxis in mice; format: in vivo; conditions: 14 mg/kg body weight, P<0.05
Protocol: Active paw anaphylaxis in mice was studied using egg albumin as the antigen adsorbed on aluminum hydroxide. In this context the reference may be made to Ghoosi R. B, Bhide M. B, (1981) Allergy Appl. Immunol., 15, 53. and Nair A. M. et al. (1995) Indian Drugs, 32(6), 277-282. The mice were dosed with NR-A2 at different doses orally in 0.5% CMC for 30 days. Prednisolone was taken as the standard. On 31st day they were sensitized with antigen, and the treatment continued. On 12^Th day after sensitization the animals were re-challenged with egg albumin in saline subcutaneously in plantar region of right hind paw while the contralateral paw received an equal volume of saline. Paw thickness was measured using pocket thickness gauge (Mitutoyo Manufacturing Co. Japan) 15 minutes after the challenge. The difference in paw thickness of right paw compared to the left paw, reflected the edema due to antigen-antibody reaction.

[3] = test system: systemic anaphylaxis; assay: Compound 48/80 induced systemic anaphylaxis in rats; format: in vivo; conditions: 10 mg/kg
Excerpt: The effect of NR-A2 in compound 48/80 (Condensation product of N-methyl-p-methoxyphenylamine with formaldehyde) induced systemic anaphylaxis was studied in rats. In this context the reference may be made to Y. M. Lee, Kim D. K, (1996) Journal of Ethnopharmacology, 54, 77-84. The animals were divided into five groups, one served as control, one standard and three groups for NR-A2. The standard (Prednisolone), NRA-2 & vehicle were given 30 days prior to intra-peritoneal administration of compound 48/80 (Condensation product of N-methyl-p-methoxyphenylamine with formaldehyde). The dose of Prednisolone was 10 mg/kg while those of NR-A2 were 150, 250, 350 mg/kg b.w. Number of deaths per group within one hour were calculated.

[4] = test system: Freund's adjuvant induced paw edema; assay: Adjuvant induced arthritis; format: in vivo, albino wistar rats; conditions: standard, rats, P<0.05
Protocol: Freund's adjuvant is a mixture of dead mycobacterium finely ground in liquid paraffin at a concentration of 5 mg/ml. When injected in hind paw it produces an edema characterised as a bi-phasic response, which persists up to 21 days. The injection of Freund's adjuvant in rat hind paw produces conditions similar to rheumatoid arthritis, a delayed hypersensitivity reaction.
NR-A2 was administered to albino wistar rats orally at doses of 150, 250 and 350 mg to body weight for 30 days before and 21 days after injecting Freund's adjuvant. Paw volume was measured using plethesmograph.

[5] = test system: mouse paw edema; assay: Compound 48/80 induced mouse paw edema; format: in vivo, mice; conditions: 1 mg/kg mouse body weight, P<0.05
Protocol: Compound 48/80 (Condensation product of N-methyl-p-methoxyphenylamine with formaldehyde) was used to induce mouse paw edema in mice. In this context the reference may be made to Nair A M, Tamhankar C P and Saraf M N (1995) Indian drugs, 32(6), 277-282. The animals were treated with NR-A2 at doses of 175, 225 and 275 mg/kg body weight orally 30 days prior to the test. Standard group received Ketotifen in the dose of 1 mg/kg b.w.

## O=C([O-])c1cc(=O)c2c(OCC(O)COc3cccc4oc(C(=O)[O-])cc(=O)c34)cccc2o1.[Na+].[Na+] [Disodiumchromoglycate]
[1]; mast cell stabilization assay, screening of plant extracts (Table 1)
  EC50 values: 3.68 µg/mL
[1]; selected prototypes (Table 2)
  EC50, mast cell stabilizing activity: 3.66 µg/mL

## C[C@]12C=CC(=O)C=C1CC[C@@H]1[C@@H]2[C@@H](O)C[C@@]2(C)[C@H]1CC[C@]2(O)C(=O)CO [Prednisolone]
[2]
  inhibition of paw edema: 74.03%
[3]
  inhibition of compound 48/80 induced anaphylaxis (deaths within one hour): 62.97%
[4]
  inhibition of adjuvant paw edema: 95.63%

## CN1CCC(=C2c3ccccc3CC(=O)c3sccc32)CC1 [Ketotifen]
[5]
  inhibition of paw edema: 64.22%
